Test results from patent publication US8809270B2, “Method for reducing cardiovascular morbidity and mortality in prediaetic patients and patients with type 2 diabetes” (priority 2003, dated 2014).
Entries after “also recorded” stand apart in the source; their conditions may differ.

How the values were obtained:
[1] = tested on: people with impaired glucose tolerance (IGT) or impaired fasting glucose (IFG), mild type 2 diabetes; assay: Study HOE901/1021: fasting and 8-point blood glucose profiles, bedtime dose titration; type: in vivo, human
Excerpt: Study HOE901/1021 was a randomized, single-blind (pharmacist-unblinded), inpatient, dose-titration study designed to examine the safety and efficacy of HOE901 given once a day subcutaneously at bedtime in a novel population: people with impaired glucose tolerance (IGT) or impaired fasting glucose (IFG). It was conceived as a pilot study for a large international trial of HOE901 in a dysglycemic population of IGT, IFG, and early type 2 diabetes in order to investigate dosing in the prediabetic (IFG/IGT) population for the first time. Of special interest was the incidence of hypoglycemia during the study.
(§1) The study was conducted at three centers in the US. After screening tests, including fasting plasma glucose (FPG) and post prandial plasma glucose (PPG; two hours following a 75 g oral glucose load) for classification as IGT, IFG, diabetic, or normal glucose tolerance (NGT), and after satisfying other inclusion criteria including the ability to perform moderate exercise on a stationary bicycle, subjects were admitted to an inpatient study center. They were confined there for the next 15 days, during which time they were randomly assigned to receive either HOE901 once per day subcutaneously in the evening, or matching placebo (saline) injections in a 3:1 randomization (HOE901:placebo). Baseline assessments included a 5-point (before each meal, bedtime, and 3 AM) and 8-point (5-point plus readings 2 hours after each meal) blood glucose profile on separate days, and 15 minutes of exercise on a stationary bicycle at a level of exertion of “somewhat hard” on the Borg scale with blood glucose values monitored during and for 3 hours following the exercise. Each subject received a 25 kCal/kg diet while confined in the study center. Capillary whole blood glucose values were recorded on HemoCue devices. Episodes of hypoglycemia (blood glucose 50 mg/dL [2.8 mM] or symptoms with blood glucose 65 mg/dL [3.6 mM]) were recorded.
Once randomized, subjects' bedtime doses of study drug were titrated to achieve a fasting blood glucose (FBG) of 80-95 mg/dL [4.4 mM-5.3 mM]. Dose increases were based on FBG values and were performed every 2 days. Subjects remained at the site until the end of the confinement period, regardless of when target FBG levels were achieved. Five-point blood glucose profiles were performed every other day, with 8-point blood glucose profiles performed on alternate days. At endpoint all baseline procedures, including an 8-point blood glucose profile, and an exercise assessment, were repeated.

[2] = tested on: individuals with IGT, IFG, or mild untreated type 2 diabetes; assay: Study HOE901/1021: blood glucose response to 15-minute stationary bicycle exercise; set-up: species or system human; conditions: in vivo
Method: The study was conducted at three centers in the US. After screening tests, including fasting plasma glucose (FPG) and post prandial plasma glucose (PPG; two hours following a 75 g oral glucose load) for classification as IGT, IFG, diabetic, or normal glucose tolerance (NGT), and after satisfying other inclusion criteria including the ability to perform moderate exercise on a stationary bicycle, subjects were admitted to an inpatient study center. They were confined there for the next 15 days, during which time they were randomly assigned to receive either HOE901 once per day subcutaneously in the evening, or matching placebo (saline) injections in a 3:1 randomization (HOE901:placebo). Baseline assessments included a 5-point (before each meal, bedtime, and 3 AM) and 8-point (5-point plus readings 2 hours after each meal) blood glucose profile on separate days, and 15 minutes of exercise on a stationary bicycle at a level of exertion of “somewhat hard” on the Borg scale with blood glucose values monitored during and for 3 hours following the exercise. Each subject received a 25 kCal/kg diet while confined in the study center. Capillary whole blood glucose values were recorded on HemoCue devices. Episodes of hypoglycemia (blood glucose 50 mg/dL [2.8 mM] or symptoms with blood glucose 65 mg/dL [3.6 mM]) were recorded. […]

[3] = tested on: individuals with IGT, IFG, or mild untreated type 2 diabetes; assay: Study HOE901/1021: adverse events and hypoglycemia; type: in vivo, human
Method: as §1
Treatment-emergent adverse events (TEAEs) occurred in 10 subjects in the HOE901 group (16 events) vs. 2 in the placebo group (5 events). Each event occurred in only 1 individual except for headache, which occurred in 3 HOE901 subjects. Only 2 HOE901 subjects and 1 placebo subject had events that were considered by investigators as possibly related to study drug. The HOE901 events were 2 episodes of headache, and one of hypoglycemia. The two headaches occurred in subjects who had hypoglycemic events on the same days and at approximately the same time as the headaches. […] Subject 3011 (who reported dizziness as an adverse event during screening) was removed from the study by the sponsor prior to receiving any study drug dose because of hypoglycemia that occurred during screening.
Only mild hypoglycemia occurred in 4 out of 16 subjects treated with HOE901 in this study. These hypoglycemic events generally occurred before lunch or supper, and resolved promptly with oral caloric intake. No episodes of hypoglycemia occurred in relation to exercise. Although the calorie-restricted diet subjects consumed during this study doubtless played a role in the occurrence of these events, the diet was typical in size for what is recommended to these frequently overweight individuals. […] Hypoglycemia can occur, but is manageable not related to exercise, and detectable with the aid of home glucose monitoring.

[4] = tested on: type 2 diabetic patients already treated with other oral antidiabetic drugs; assay: Study 4014: lipid data, LANTUS versus rosiglitazone; type: in vivo, human; set-up: Triglycerides % reduction from baseline / Triglycerides % reduction from baseline, LANTUS-AVANDIA / Non-HDL Cholesterol Total % reduction from baseline: concentration or dose not given beside the values; Triglycerides Baseline / Triglycerides Endpoint: unit not given beside the values; conditions: for Triglycerides % reduction from baseline, LANTUS-AVANDIA / Triglycerides change at endpoint, LANTUS-AVANDIA: LANTUS minus AVANDIA
[5] = Multiple-dose pharmacokinetic study (Study 1020); type: in vivo; conditions: 2 days of treatment
Excerpt: Treatment with Lantus® LANTUS (insulin glargine) insulin offers the possibility of a smooth, daylong, blood insulin profile without a definite peak that can be finely titrated to lower subjects' FPG in a durable manner, while minimizing the risk of hypoglycemia at other times of day.

[6] = tested on: US/Canada type 2 diabetic patients; assay: Treat-to-Target study: hypoglycemia, bedtime LANTUS vs. NPH insulin; type: in vivo, human; conditions: single bedtime dose
Method: The ideal basal insulin might be expected to be less worrisome from this standpoint because the circulating insulin produced would target blood glucose elevations throughout the day rather than mealtime fluctuations. […] The “Treat-to-Target” study ^38 in US/Canada type 2 diabetic patients investigated whether a single bedtime dose of Lantus® LANTUS (insulin glargine) vs. NPH insulin (a moderate- to long-acting insulin with a pronounced peak in plasma activity for 4 to 8 hours after injection)^39 would achieve target metabolic control without increasing nocturnal hypoglycemia.
Insulin has features that make it especially useful in the patient with pronounced diabetic dyslipidemia, as compared to the oral antidiabetic agents usually used as initial pharmacotherapy. […] NPH insulin despite having a prolonged duration of action, has a pronounced peak effect from 3-6 hours after injection, rendering it less suitable in the management of the patient with milder diabetes due to the risk for hypoglycemia.

[7] = in vivo; cited from earlier work

With insulin glargine [LANTUS] the “Mean FBG” value ([1]; Day 12 (endpoint)) was 85.6 mg/dL, the “Mean FBG” value ([1]; Day −1 (baseline)) was 98.1 mg/dL and the “reduction in mean daylong blood glucose” value ([1]; Day −1 to Day 12) was 8.8 mg/dL. For the same substance, the “subjects who had reached an FPG of 100 mg/dL” value ([1]; by Day 12) was “All but 2”, the “subjects who had reached the FBG target of 95 mg/dL or less” value ([1]; by Day 12) was “all but 4” and the “hypoglycemic events during exercise” value [2] was “no hypoglycemic events”. For the same substance, the “Treatment-emergent adverse events (TEAEs), events” value ([3]; in vivo) was 16 events, the “Treatment-emergent adverse events (TEAEs), subjects” value ([3]; in vivo) was 10 subjects and the headache ([3]; in vivo) was 3 subjects. For the same substance, the safety and tolerability ([3]; in vivo) was “safe and well tolerated”, the serious adverse events ([3]; in vivo) was “no serious adverse events” and the “subjects with events considered by investigators as possibly related to study drug” value ([3]; in vivo) was 2 subjects. The mild hypoglycemia ([3]; out of 16 subjects treated) was 4 subjects, the “HDL Baseline” value ([4]; TG baseline range 200-500) was 38 and the “HDL Endpoint” value ([4]; TG baseline range 200-500) was 40. The “LDL Baseline” value ([4]; TG baseline range 200-500) was 115, the “LDL Endpoint” value ([4]; TG baseline range 200-500) was 111 and the “Non-HDL Cholesterol Total Baseline” value ([4]; TG baseline range 200-500) was 168. The “Non-HDL Cholesterol Total Endpoint” value ([4]; TG baseline range 200-500) was 152, the “Triglycerides % reduction from baseline” value ([4]; TG baseline range 200-500) was 18% and the “Triglycerides Baseline” value ([4]; TG baseline range 200-500) was 285. The “Triglycerides Endpoint” value ([4]; TG baseline range 200-500) was 234, the “Triglycerides % reduction from baseline, LANTUS-AVANDIA” value ([4]; TG baseline range 200-500) was 18% and the “Triglycerides change at endpoint, LANTUS-AVANDIA” value ([4]; TG baseline range 200-500) was 47.7. The “HDL Baseline” value ([4]; TG baseline range 300-500) was 32, the “HDL Endpoint” value ([4]; TG baseline range 300-500) was 34 and the “Non-HDL Cholesterol Total % reduction from baseline” value ([4]; TG baseline range 300-500) was 4%. For the same substance, the “Non-HDL Cholesterol Total Baseline” value ([4]; TG baseline range 300-500) was 156, the “Non-HDL Cholesterol Total Endpoint” value ([4]; TG baseline range 300-500) was 150 and the “Triglycerides % reduction from baseline” value ([4]; TG baseline range 300-500) was 27%. For the same substance, the “Triglycerides Baseline” value ([4]; TG baseline range 300-500) was 380, the “Triglycerides Endpoint” value ([4]; TG baseline range 300-500) was 277 and the “Triglycerides % reduction from baseline, LANTUS-AVANDIA” value ([4]; TG baseline range 300-500) was 18%. For the same substance, the “Triglycerides change at endpoint, LANTUS-AVANDIA” value ([4]; TG baseline range 300-500) was 68.5, the “HDL Baseline” value ([4]; TG baseline range 500-1000) was 28 and the “HDL Endpoint” value ([4]; TG baseline range 500-1000) was 29. For the same substance, the “Non-HDL Cholesterol Total Baseline” value ([4]; TG baseline range 500-1000) was 178, the “Non-HDL Cholesterol Total Endpoint” value ([4]; TG baseline range 500-1000) was 153 and the “Triglycerides Baseline” value ([4]; TG baseline range 500-1000) was 817. For the same substance, the “Triglycerides Endpoint” value ([4]; TG baseline range 500-1000) was 494, the “doses to reach steady-state levels” value [5] was 2 doses and the “hypoglycemia vs. NPH” value [6] was “significant reductions in nocturnal hypoglycemia; also recorded: significant advantages over NPH in hypoglycemia”. For the same substance, the duration of action [7] was “up to 24 hour”.
